Read-outs that look alike come from different tables or passages of the source.
Assay: Pharmacokinetic profiles by cassette dosing in dog (IV and PO)
Assay type: in vivo
Settings: male beagle dogs, 1 mg/kg; for bioavailability: read-out: F (PO), percent bioavailability
Protocol: The pharmacokinetic profiles of EXAMPLE 20, EXAMPLE 22, EXAMPLE 29 and EXAMPLE 31 were evaluated using cassette dosing protocols in dog. The cassette dosing protocol in dogs combined three test compounds with the reference compound (EXAMPLE 104 of commonly-owned U.S. Pat. No. 5,866,549), each at a dose of 1 mg/kg. The compounds for each cassette were formulated as a solution in an aqueous vehicle containing 10% ethanol and one equivalent hydrochloric acid. Groups of three male beagle dogs received either an intravenous dose (IV) or an oral dose (PO). Sequential blood samples were taken from each animal for 24 hours after dosing. The plasma concentrations of the test compound and reference compounds were simultaneously determined using HPLC-MS/MS following liquid-liquid extraction of the samples. The results are shown in TABLE 2, in which […] is plasma clearance; T1/2 and Tmax are expressed in hours; Cmax is expressed in μg/mL; AUC is expressed in μg·h/mL; F is percent bioavaibility; and volumes of distibution Vc and Vβ are volume of the central compartment and terminal phase distribution, respectively.

CC[C@H]1OC(=O)[C@H](C)C(=O)[C@H](C)[C@@H](O[C@@H]2O[C@H](C)C[C@H](N(C)C)[C@H]2O)C(C)(OCC#Cc2ccc(-c3nnn(C)n3)s2)C[C@@H](C)C(=O)[C@H](C)[C@H]2NC(=O)O[C@@]21C (stereo in doubt) [7B, (3aS,4R,7R,9R,10R,11S,13R,15R,15aR)-10-(((2S,3R,4S,6R)-4-(dimethylamino)-3-hydroxy-6-methyltetrahydro-2H-pyran-2-yl)oxy)-4-ethyl-3a,7,9,11,13,15-hexamethyl-11-((3-(5-(2-methyl-2H-tetraazol-5-yl)thien-2-yl)prop-2-ynyl)oxy)octahydro-2H-oxacyclotetradecino[4,3-d][1,3]oxazole-2,6,8,14(1H,7H,9H)-tetrone]
AUC (dog, in vivo, intravenous dose, read-out: AUC (IV)): 11900 ng·h/mL | clearance (dog, in vivo, intravenous dose, read-out: CLp (IV), plasma clearance (converted)): 1.5 mL/min/kg | half-life (dog, in vivo, intravenous dose, read-out: T½ (IV) (converted)): 9 h | Cmax (dog, in vivo, oral dose): 720 ng/mL | Tmax (dog, in vivo, oral dose): 1.3 h | AUC (dog, in vivo, oral dose, read-out: AUC (PO)): 9660 ng·h/mL | bioavailability (dog, in vivo, oral dose): 80.3% | half-life (dog, in vivo, oral dose, read-out: T½ (PO) (converted)): 6.7 h | Vc (IV), volume of the central compartment (intravenous dose): 0.9 | Vβ (IV), terminal phase distribution volume (intravenous dose): 1.2

CC[C@H]1OC(=O)[C@@](C)(F)C(=O)[C@H](C)[C@@H](O[C@@H]2O[C@H](C)C[C@H](N(C)C)[C@H]2O)[C@@](C)(OCC#Cc2ccc(-c3nnn(C)n3)s2)C[C@@H](C)C(=O)[C@H](C)[C@H]2NC(=O)O[C@@]21C [3B, (3aS,4R,7S,9R,10R,11S,13R,15R,15aR)-10-(((2S,3R,4S,6R)-4-(dimethylamino)-3-hydroxy-6-methyltetrahydro-2H-pyran-2-yl)oxy)-4-ethyl-7-fluoro-3a,7,9,11,13,15-hexamethyl-11-((3-(5-(2-methyl-2H-tetraazol-5-yl)thien-2-yl)prop-2-ynyl)oxy)octahydro-2H-oxacyclotetradecino [4,3-d][1,3]oxazole-2,6,8,14(1H,7H,9H)-tetrone]
bioavailability (dog, plasma, oral dose): 73.6% | AUC (IV) (intravenous dose): 7290 ng·h/mL | CLp (IV), plasma clearance (intravenous dose): 0.16 | T½ (IV) (intravenous dose): 14.4 h | Vc (IV), volume of the central compartment (intravenous dose): 1.6 | Vβ (IV), terminal phase distribution volume (intravenous dose): 3.1 | AUC (PO) (oral dose): 5140 ng·h/mL | Cmax (PO) (oral dose): 250 ng/mL | Tmax (PO) (oral dose): 2 h | T½ (PO) (oral dose): 11.1 h

CC[C@H]1OC(=O)[C@H](C)C(=O)[C@H](C)[C@@H](O[C@@H]2O[C@H](C)C[C@H](N(C)C)[C@H]2O)[C@@](C)(OC/C=C/c2ccc(-c3nnn(C)n3)s2)C[C@@H](C)C(=O)[C@H](C)[C@H]2NC(=O)O[C@@]21C [4B, (3aS,4R,7R,9R,10R,11S,13R,15R,15aR)-10-(((2S,3R,4S,6R)-4-(dimethylamino)-3-hydroxy-6-methyltetrahydro-2H-pyran-2-yl)oxy)-4-ethyl-3a,7,9,11,13,15-hexamethyl-11-(((2E)-3-(5-(2-methyl-2H-tetraazol-5-yl)thien-2-yl)prop-2-enyl)oxy)octahydro-2H-oxacyclotetradecino[4,3-d][1,3]oxazole-2,6,8,14(1H,7H,9H)-tetrone]
bioavailability (dog, plasma, oral dose): 63% | AUC (IV) (intravenous dose): 11520 ng·h/mL | CLp (IV), plasma clearance (intravenous dose): 0.09 | T½ (IV) (intravenous dose): 8.4 h | Vc (IV), volume of the central compartment (intravenous dose): 0.9 | Vβ (IV), terminal phase distribution volume (intravenous dose): 1.1 | AUC (PO) (oral dose): 6770 ng·h/mL | Cmax (PO) (oral dose): 490 ng/mL | Tmax (PO) (oral dose): 1.5 h | T½ (PO) (oral dose): 7.8 h

CC[C@H]1OC(=O)[C@@](C)(F)C(=O)[C@H](C)[C@@H](O[C@@H]2O[C@H](C)C[C@H](N(C)C)[C@H]2O)[C@@](C)(OC/C=C/c2ccc(-c3nnn(C)n3)s2)C[C@@H](C)C(=O)[C@H](C)[C@H]2NC(=O)O[C@@]21C [8B, (3aS,4R,7S,9R,10R,11S,13R,15R,15aR)-10-(((2S,3R,4S,6R)-4-(dimethylamino)-3-hydroxy-6-methyltetrahydro-2H-pyran-2-yl)oxy)-4-ethyl-7-fluoro-3a,7,9,11,13,15-hexamethyl-11-(((2E)-3-(5-(2-methyl-2H-tetraazol-5-yl)thien-2-yl)prop-2-enyl)oxy)octahydro-2H-oxacyclotetradecino[4,3-d][1,3]oxazole-2,6,8,14(1H,7H,9H)-tetrone]
bioavailability (dog, plasma, oral dose): 81.1% | AUC (IV) (intravenous dose): 16130 ng·h/mL | CLp (IV), plasma clearance (intravenous dose): 0.07 | T½ (IV) (intravenous dose): 22.9 h | Vc (IV), volume of the central compartment (intravenous dose): 1.1 | Vβ (IV), terminal phase distribution volume (intravenous dose): 2.3 | AUC (PO) (oral dose): 12600 ng·h/mL | Cmax (PO) (oral dose): 480 ng/mL | Tmax (PO) (oral dose): 4.5 h | T½ (PO) (oral dose): 17.2 h

— patent US20030207820A1, “Antibacterial compounds with improved pharmacokinetic profiles” (priority 2002, published 2003)
